{"source": "patent US10383880B2", "about": "(Reset Therapeutics, Inc., priority 2012, dated 2019)"}
{"system": "Per2-dLuc U2OS reporter cells", "assay": "Per2 assay for evaluating the potency of test compounds (high-throughput circadian assay)", "assay_type": "cell-based", "conditions": "Homo sapiens, U2OS, stable U2OS reporter cells harboring Per2-dLuc; luminescence monitored over 4-5 days at 35° C.", "how_it_was_run": "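After 24 h culture, U2OS cells carrying Per2-dLuc were serum-shock synchronized into explant medium with 1.0 mM luciferin (10 mM HEPES pH 7.0) and compound in 0.5% DMSO. Luminescence was recorded over 4–5 days at 35 °C. Circadian period, amplitude and phase were derived, and EC50 calculated.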", "units": {"EC50": "nM"}}
{"smiles": "COC1CCCC(N(CC(O)Cn2c3ccccc3c3ccccc32)S(C)(=O)=O)C1", "note": "(centres unmarked) [Compound 139, N-(3-(9H-Carbazol-9-yl)-2-hydroxypropyl)-N-(3-methoxycyclohexyl)methanesulfonamide]", "EC50": 263}
{"smiles": "CS(=O)(=O)N(CC(O)Cn1c2ccccc2c2ccccc21)c1cccc(C(N)=O)c1", "note": "(centres unmarked) [Compound 74, 3-(N-(3-(9H-Carbazol-9-yl)-2-hydroxypropyl)methylsulfonamido)benzamide]", "EC50": 7620}
{"smiles": "CS(=O)(=O)N(CC(O)Cn1c2ccccc2c2ccccc21)c1ccc2ccccc2c1", "note": "(centres unmarked) [Compound 48, N-(3-(9H-Carbazol-9-yl)-2-hydroxypropyl)-N-(naphthalen-2-yl)methanesulfonamide]", "EC50": 1500}
{"smiles": "CS(=O)(=O)N(CC(O)Cn1c2ccc(F)cc2c2cc(F)ccc21)c1ccc(OC(F)F)cc1", "note": "(centres unmarked) [Compound 206, N-(3-(3,6-Difluoro-9H-carbazol-9-yl)-2-hydroxypropyl)-N-(4-(difluoromethoxy)phenyl)methanesulfonamide]", "EC50": 2850}
{"smiles": "CCCS(=O)(=O)N(Cc1ccco1)CC(O)Cn1c2ccccc2c2ccccc21", "note": "(centres unmarked) [Compound 3, N-(3-(9H-Carbazol-9-yl)-2-hydroxypropyl)-N-(furan-2-ylmethyl)propane-1-sulfonamide]", "EC50": 650}
{"smiles": "O=S1(=O)CCCCN1CC(O)Cn1c2ccccc2c2ccccc21", "note": "(centres unmarked) [Compound 33, N-(3-(9H-Carbazol-9-yl)-2-hydroxypropyl)-1,2-thiazinane 1,1-dioxide]", "EC50": 35}
{"smiles": "COC1CCCC(N(CC(O)Cn2c3ccc(F)cc3c3cc(F)ccc32)S(C)(=O)=O)C1", "note": "(centres unmarked) [Compound 198, N-(3-(3,6-Difluoro-9H-carbazol-9-yl)-2-hydroxypropyl)-N-(3-methoxycyclohexyl)methanesulfonamide]", "EC50": 1230}
{"smiles": "O=S1(=O)N(CC(O)Cn2c3ccc(F)cc3c3cc(F)ccc32)CCN1C1CCCCC1", "note": "(centres unmarked) [Compound 233]", "EC50": 418}
{"smiles": "CS(=O)(=O)N(CC(O)Cn1c2ccccc2c2ccccc21)c1ccc(Br)cc1", "note": "(centres unmarked) [Compound 28, N-(3-(9H-Carbazol-9-yl)-2-hydroxypropyl)-N-(4-bromophenyl)methanesulfonamide]", "EC50": 2090}
{"smiles": "CN1CCCN(CC(O)Cn2c3ccccc3c3ccccc32)S1(=O)=O", "note": "(centres unmarked) [Compound 124, 2-(3-(9H-Carbazol-9-yl)-2-hydroxypropyl)-6-methyl-1,2,6-thiadiazinane-1,1-dioxide]", "EC50": 154}
{"smiles": "O=S(=O)(c1ccccc1)N(Cc1ccco1)CC(O)Cn1c2ccccc2c2ccccc21", "note": "(centres unmarked) [Compound 4, N-(3-(9H-Carbazol-9-yl)-2-hydroxypropyl)-N-(furan-2-ylmethyl)benzenesulfonamide]", "EC50": 2500}
{"smiles": "CS(=O)(=O)N(CC(O)Cn1c2ccccc2c2ccccc21)c1ccc(C#N)cc1", "note": "(centres unmarked) [Compound 80, N-(3-(9H-Carbazol-9-yl)-2-hydroxypropyl)-N-(4-cyanophenyl)methanesulfonamide]", "EC50": 4220}
{"smiles": "CS(=O)(=O)N(CC(O)Cn1c2ccccc2c2ccccc21)c1cccc(C#N)c1", "note": "(centres unmarked) [Compound 72, N-(3-(9H-Carbazol-9-yl)-2-hydroxypropyl)-N-(3-cyanophenyl)methanesulfonamide]", "EC50": 2580}
{"smiles": "O=S1(=O)Cc2ccccc2N1CC(O)Cn1c2ccccc2c2ccccc21", "note": "(centres unmarked) [Compound 36, N-(3-(9H-Carbazol-9-yl)-2-hydroxypropyl)-1,3-dihydrobenzo[c]isothiazole 2,2-dioxide]", "EC50": 539}
{"smiles": "CC(O)(CN1CCC(C)(C)S1(=O)=O)Cn1c2ccc(F)cc2c2cc(F)ccc21", "note": "(centres unmarked) [Compound 180, 2-(3-(3,6-Difluoro-9H-carbazol-9-yl)-2-hydroxy-2-methylpropyl)-5,5-dimethylisothiazolidine-1,1-dioxide]", "EC50": 1650}
{"smiles": "CC1CCCC1N(CC(C)(O)Cn1c2ccc(F)cc2c2cc(F)ccc21)S(C)(=O)=O", "note": "(centres unmarked) [Compound 192, N-(3-(3,6-Difluoro-9H-carbazol-9-yl)-2-hydroxy-2-methylpropyl)-N-(2-methylcyclopentyl)methanesulfonamide]", "EC50": 686}
{"smiles": "CS(=O)(=O)N(CC(O)Cn1c2ccccc2c2ccccc21)c1ccccc1I", "note": "(centres unmarked) [Compound 26, N-(3-(9H-Carbazol-9-yl)-2-hydroxypropyl)-N-(2-iodophenyl)methanesulfonamide]", "EC50": 1300}
{"smiles": "CS(=O)(=O)N(Cc1ccccc1)CC(O)Cn1c2ccccc2c2ccccc21", "note": "(centres unmarked) [Compound 44, N-(3-(9H-Carbazol-9-yl)-2-hydroxypropyl)-N-benzylmethanesulfonamide]", "EC50": 8270}
{"smiles": "CCCN(CC(C)(O)Cn1c2ccc(F)cc2c2cc(F)ccc21)S(C)(=O)=O", "note": "(centres unmarked) [Compound 151, N-(3-(3,6-Difluoro-9H-carbazol-9-yl)-2-hydroxy-2-methylpropyl)-N-propylmethanesulfonamide]", "EC50": 2260}
{"smiles": "O=S(=O)(N(Cc1ccco1)CC(O)Cn1c2ccccc2c2ccccc21)C(F)(F)F", "note": "(centres unmarked) [Compound 83, N-(3-(9H-Carbazol-9-yl)-2-hydroxypropyl)-1,1,1-trifluoro-N-(furan-2-ylmethyl)methanesulfonamide]", "EC50": 413}
{"smiles": "CS(=O)(=O)N(Cc1ccco1)CC(O)Cn1c2ccccc2c2ccc(F)cc21", "note": "(centres unmarked) [Compound 237, N-(3-(2-Fluoro-9H-carbazol-9-yl)-2-hydroxy-propyl)-N-(furan-2-yl-methyl)methane-sulfonamide]", "EC50": 594}
{"smiles": "Cc1cccc(N(CC(O)Cn2c3ccccc3c3ccccc32)S(C)(=O)=O)c1", "note": "(centres unmarked) [Compound 63, N-(3-(9H-Carbazol-9-yl)-2-hydroxypropyl)-N-m-tolylmethanesulfonamide]", "EC50": 199}
{"smiles": "O=S1(=O)CCCN1CC(O)Cn1c2ccc(F)cc2c2ccc(F)cc21", "note": "(centres unmarked) [Compound 101, N-(3-(2,6-Difluoro-9H-carbazol-9-yl)-2-hydroxypropyl)-isothiazolidine-1,1-dioxide]", "EC50": 50}
{"smiles": "CC(C)N1CCN(CC(O)Cn2c3ccc(F)cc3c3cc(F)ccc32)S1(=O)=O", "note": "(centres unmarked) [Compound 224]", "EC50": 59}
{"smiles": "O=S1(=O)CCCCN1CC(O)Cn1c2cc(F)ccc2c2c(F)cccc21", "note": "(centres unmarked) [Compound 96, N-(3-(2,5-Difluoro-9H-carbazol-9-yl)-2-hydroxypropyl)-1,2-thiazinane 1,1-dioxide]", "EC50": 456}
{"smiles": "CCOCc1ccc(N(CC(O)Cn2c3ccc(F)cc3c3cc(F)ccc32)S(C)(=O)=O)cc1", "note": "(centres unmarked) [Compound 208, N-(3-(3,6-Difluoro-9H-carbazol-9-yl)-2-hydroxypropyl)-N-(4-(ethoxymethyl)phenyl)methanesulfonamide]", "EC50": 4710}
{"smiles": "CC1(N(CC(O)Cn2c3ccccc3c3ccccc32)S(C)(=O)=O)CC1", "note": "(centres unmarked) [Compound 137, N-(3-(9H-Carbazol-9-yl)-2-hydroxypropyl)-N-(1-methylcyclopropyl)methanesulfonamide]", "EC50": 76}
{"smiles": "CC1(C)CC1N(CC(O)Cn1c2ccccc2c2ccccc21)S(C)(=O)=O", "note": "(centres unmarked) [Compound 132, N-(3-(9H-Carbazol-9-yl)-2-hydroxypropyl)-N-(2,2-dimethylcyclopropyl)methanesulfonamide]", "EC50": 348}
{"smiles": "CS(=O)(=O)N(CC(O)Cn1c2ccccc2c2ccccc21)C1CCCC(F)(F)C1", "note": "(centres unmarked) [Compound 134, N-(3-(9H-Carbazol-9-yl)-2-hydroxypropyl)-N-(3,3-difluorocyclohexyl)methanesulfonamide]", "EC50": 1080}
{"smiles": "Cc1ccc(S(=O)(=O)N(C)c2ccc(N(CC(O)Cn3c4ccccc4c4ccccc43)S(C)(=O)=O)cc2)cc1", "note": "(centres unmarked) [Compound 31, N-(4-(N-(3-(9H-Carbazol-9-yl)-2-hydroxypropyl)methylsulfonamido)phenyl)-N,4-dimethylbenzenesulfonamide]", "EC50": 1400}
{"smiles": "CS(=O)(=O)N(Cc1ccco1)CC(O)Cn1c2ccccc2c2cc(F)ccc21", "note": "(centres unmarked) [Compound 238, N-(3-(3-Fluoro-9H-carbazol-9-yl)-2-hydroxy-propyl)-N-(furan-2-yl-methyl)methane-sulfonanide]", "EC50": 535}
{"smiles": "CS(=O)(=O)N(CC(O)Cn1c2ccccc2c2ccccc21)c1ccc2cn[nH]c2c1", "note": "(centres unmarked) [Compound 78, N-(3-(9H-Carbazol-9-yl)-2-hydroxypropyl)-N-(1H-indazol-6-yl)methanesulfonamide]", "EC50": 6350}
{"smiles": "CC(C)(C(O)Cn1c2ccc(F)cc2c2cc(F)ccc21)N1CCCS1(=O)=O", "note": "(centres unmarked) [Compound 244, 2-(4-(3,6-Difluoro-9H-carbazol-9-yl)-3-hydroxy-2-methylbutan-2-yl)isothiazolidine-1,1-dioxide]", "EC50": 57}
{"smiles": "O=S1(=O)N(CC(O)Cn2c3ccc(F)cc3c3cc(F)ccc32)CCC1(F)F", "note": "(centres unmarked) [Compound 185, 2-(3-(3,6-Difluoro-9H-carbazol-9-yl)-2-hydroxypropyl)-5,5-difluoroisothiazolidine-1,1-dioxide]", "EC50": 45}
{"smiles": "CC(C)N(CC(O)Cn1c2ccc(F)cc2c2cc(F)ccc21)S(C)(=O)=O", "note": "(centres unmarked) [Compound 117, N-(3-(3,6-Difluoro-9H-carbazol-9-yl)-2-hydroxypropyl)-N-isopropylmethanesulfonamide]", "EC50": 127}
